≈ marks a conversion by molar mass, not a printed value.
Columns and labels:
[1] = tested on: P. falciparum 3D7 strain; assay: cell-based P. falciparum proliferation assay, 3D7 strain; details: Plasmodium falciparum; chloroquine sensitive 3D7 strain; means of two experiments
Excerpt: (§1) Currently there is a need for novel chemical scaffolds with different mechanisms of action, since most of the current approved antimalarial drugs belong to the aminoquinoline family. In order to find new chemical scaffolds, we initiated a compound screen using our in-house kinase inhibitor collection and subjected them to a cell-based of Plasmodium falciparum proliferation assay[5,6] We envisioned that the hits arising from this screen can be rapidly optimized by leveraging our past experiences with these compounds series in alternative target-classes/indications. Furthermore, we thought that it would be prudent to remove the human kinase activity early on during the compound optimization phase to negate the possibility of toxicity arising from host-related off-target activities (Scheme 1).

[2] = tested on: P. falciparum W2 strain; assay: cell-based P. falciparum proliferation assay, W2 strain; design: species or system Plasmodium falciparum; details: for EC50: Plasmodium falciparum, W2, read-out: P. falciparum W2 strain EC50
Excerpt: as §1
One important aspect of antimalarial drug discovery is to identify agents that are active against the drug-resistant parasites. […] While most of these resistance phenotypes are due to point mutations in the drug target, the W2 strain also contains an amplification of the P. falciparum multidrug resistance transporter.[10]

[3] = snapshot PK in mice, single oral dose; type: in vivo; details: mice balb/c, 20 mg/kg orally, PEG300/D5W 3:1 solution, free base; for AUC(0-t) / Cmax at 5 h / Tmax at 5 h: mouse, in vivo, po
Description: Mice were dosed a single dose of 20 mg/kg orally and their exposure levels were monitored over a period of 5 h and results are summarized in Table 6.[11]
[11] Snapshot PK is developed and used by GNF pharmacology group as a rapid pharmacokinetic screening approach. The pharmacokinetic parameters of the compounds are studied in a single mode of administration (generally PO arm) over a period of 5 h. The study is carried out on two animals and the samples are pooled together at each time point. This high throughput approach offers exposure levels with reasonable confidence without committing to extensive resources. For details, see: Liu, B.; Chang, J.; Gordon, W. P.; Isbell, J.; Zhou, Yi.; Tuntland, T. Drug Discovery Today2008, 13, 360–367.

[4] = tested on: P. falciparum strain 3BAG; assay: P. falciparum proliferation assay, 3BAG strain; type: cell-based; details: Plasmodium falciparum
Excerpt: as §1
(§2) Compound 32 was profiled in an extended panel of 15 drug resistant strains (Table 5) and against a 6-cell line toxicity panel.

[5] = tested on: P. falciparum strain NF54; assay: P. falciparum proliferation assay, NF54 strain; type: cell-based; details: Plasmodium falciparum
Excerpt: as §1, §2

[6] = HT-thermodynamic solubility; type: physicochemical; details: pH 6.8; pH6.8, free base; preliminary
Excerpt: (§3) We also performed preliminary solubility and metabolic stability measurements on compound 32.

[7] = tested on: P. falciparum strain D10; assay: P. falciparum proliferation assay, D10 strain; type: cell-based; details: Plasmodium falciparum
Excerpt: as §1, §2

[8] = tested on: 15 P. falciparum strains; assay: extended panel of 15 drug resistant strains; type: cell-based, Plasmodium falciparum; details: 15 strains, potencies relative to each other
Excerpt: as §2

[9] = tested on: P. falciparum strain HB3; assay: P. falciparum proliferation assay, HB3 strain; type: cell-based; details: Plasmodium falciparum
Excerpt: as §1, §2

[10] = tested on: P. falciparum strain C188; assay: P. falciparum proliferation assay, C188 strain; type: cell-based; details: Plasmodium falciparum
Excerpt: as §1, §2

[11] = tested on: P. falciparum strain K1; assay: P. falciparum proliferation assay, K1 strain; type: cell-based; details: Plasmodium falciparum
Excerpt: as §1, §2

[12] = tested on: P. falciparum strain D6; assay: P. falciparum proliferation assay, D6 strain; type: cell-based; details: Plasmodium falciparum
Excerpt: as §1, §2

[13] = tested on: P. falciparum strain FCR3; assay: P. falciparum proliferation assay, FCR3 strain; type: cell-based; details: Plasmodium falciparum
Excerpt: as §1, §2

[14] = tested on: P. falciparum strain Camp R; assay: P. falciparum proliferation assay, Camp R strain; type: cell-based; details: Plasmodium falciparum
Excerpt: as §1, §2

[15] = tested on: P. falciparum strain FCB; assay: P. falciparum proliferation assay, FCB strain; type: cell-based; details: Plasmodium falciparum
Excerpt: as §1, §2

[16] = metabolic stability in mouse microsomes; type: in vitro ADME; details: preliminary
Excerpt: as §3

[17] = 6-cell line toxicity panel, selectivity index; type: cell-based; details: cytotoxicity TC50 vs antiplasmodial potency; read-out: selectivity index (SI)
Excerpt: as §2

[18] = tested on: P. falciparum strain Dd2; assay: P. falciparum proliferation assay, Dd2 strain; type: cell-based; details: Plasmodium falciparum
Excerpt: as §1, §2

[19] = tested on: Ba/F3; type: cell-based; details: mouse
Excerpt: as §2

[20] = tested on: 293T; type: cell-based; details: human
Excerpt: as §2

[21] = tested on: HeLa; type: cell-based; details: human
Excerpt: as §2

[22] = tested on: CHO; type: cell-based; details: Chinese hamster
Excerpt: as §2

[23] = tested on: HEp2; type: cell-based; details: human
Excerpt: as §2

[24] = tested on: Huh7; type: cell-based; details: human
Excerpt: as §2

[25] = tested on: P. falciparum strain 7G8; assay: P. falciparum proliferation assay, 7G8 strain; type: cell-based; details: Plasmodium falciparum
Excerpt: as §1, §2

[26] = tested on: P. falciparum strain TM91C235; assay: P. falciparum proliferation assay, TM91C235 strain; type: cell-based; details: Plasmodium falciparum
Excerpt: as §1, §2

CCCNC(=O)c1cc(N2CCC(N3CCCC3)CC2)cc(C(F)(F)F)c1 [Compound 4]
EC50 [1]: 6480 nM

O=C(Nc1ccncn1)c1cc(N2CCC(N3CCCC3)CC2)cc(C(F)(F)F)c1 [Compound 5]
EC50 [1]: 2160 nM

O=C(Nc1ccccc1Cl)c1cc(N2CCC(N3CCCC3)CC2)cc(C(F)(F)F)c1 [Compound 6]
EC50 [1]: 1720 nM

O=C(Nc1ccc(Cl)cc1)c1cc(N2CCC(N3CCCC3)CC2)cc(C(F)(F)F)c1 [Compound 7]
EC50 [1]: 114 nM

O=C(Nc1cccc(Cl)c1)c1cc(N2CCC(N3CCCC3)CC2)cc(C(F)(F)F)c1 [Compound 8]
EC50 [1]: 134 nM | EC50 [2]: 888 nM | shift in potency between 3D7 and W2 ([2]; W2 vs 3D7): ~6 fold | AUC(0–5h)/dose [3]: 5.31 (min ug/mL)/(mg/kg) | AUC(0-t) [3]: 3.92 µM·h | Cmax at 5 h [3]: 1360 nM | Tmax at 5 h [3]: 1 h

N#Cc1cccc(NC(=O)c2cc(N3CCC(N4CCCC4)CC3)cc(C(F)(F)F)c2)c1 [Compound 9]
EC50 [1]: 146 nM

O=C(Nc1cccc(C(F)(F)F)c1)c1cc(N2CCC(N3CCCC3)CC2)cc(C(F)(F)F)c1 [Compound 10]
EC50 [1]: 174 nM

O=C(Nc1ccc(Cl)c(Cl)c1)c1cc(N2CCC(N3CCCC3)CC2)cc(C(F)(F)F)c1 [Compound 11]
EC50 [1]: 54 nM

O=C(Nc1ccc(Br)c(Cl)c1)c1cc(N2CCC(N3CCCC3)CC2)cc(C(F)(F)F)c1 [Compound 12]
EC50 [1]: 98 nM

O=C(Nc1cc(Cl)cc(Cl)c1)c1cc(N2CCC(N3CCCC3)CC2)cc(C(F)(F)F)c1 [Compound 13]
EC50 [1]: 48 nM | AUC(0–5h)/dose [3]: 7.01 (min ug/mL)/(mg/kg) | AUC(0-t) [3]: 4.81 µM·h | Cmax at 5 h [3]: 1640 nM | Tmax at 5 h [3]: 5 h

O=C(Nc1cc(N2CCC(N3CCCC3)CC2)cc(C(F)(F)F)c1)c1cccc(C(F)(F)F)c1 [Compound 14]
EC50 [1]: 201 nM | AUC(0–5h)/dose [3]: 6.94 (min ug/mL)/(mg/kg) | AUC(0-t) [3]: 4.77 µM·h | Cmax at 5 h [3]: 1170 nM | Tmax at 5 h [3]: 3 h

N#Cc1cccc(C(=O)Nc2cc(N3CCC(N4CCCC4)CC3)cc(C(F)(F)F)c2)c1 [Compound 15]
EC50 [1]: 402 nM

O=S(=O)(Nc1cc(N2CCC(N3CCCC3)CC2)cc(C(F)(F)F)c1)c1cccc(C(F)(F)F)c1 [Compound 16]
EC50 [1]: 8250 nM

CN(C(=O)c1cc(N2CCC(N3CCCC3)CC2)cc(C(F)(F)F)c1)c1cccc(Cl)c1 [Compound 17]
EC50 [1]: 4680 nM

O=C(Nc1cccc(C(F)(F)F)c1)Nc1cc(N2CCC(N3CCCC3)CC2)cc(C(F)(F)F)c1 [Compound 18]
EC50 [1]: 452 nM

O=C(Nc1cccc(Cl)c1)Nc1cc(N2CCC(N3CCCC3)CC2)cc(C(F)(F)F)c1 [Compound 19]
EC50 [1]: 328 nM

FC(F)(F)c1cccc(CNc2cc(N3CCC(N4CCCC4)CC3)cc(C(F)(F)F)c2)c1 [Compound 20]
EC50 [1]: 1980 nM

FC(F)(F)c1cccc(Nc2cc(N3CCC(N4CCCC4)CC3)cc(C(F)(F)F)c2)c1 [Compound 21]
EC50 [1]: 638 nM

O=C(NCc1cccc(C(F)(F)F)c1)c1cc(N2CCC(N3CCCC3)CC2)cc(C(F)(F)F)c1 [Compound 22]
EC50 [1]: 734 nM

O=C(NC1(c2cccc(C(F)(F)F)c2)CC1)c1cc(N2CCC(N3CCCC3)CC2)cc(C(F)(F)F)c1 [Compound 23]
EC50 [1]: 423 nM

O=C(Nc1cccc(Cl)c1)c1cc(F)cc(N2CCC(N3CCCC3)CC2)c1 [Compound 24]
EC50 [1]: 766 nM

O=C(Nc1cccc(Cl)c1)c1cccc(N2CCC(N3CCCC3)CC2)c1 [Compound 25]
EC50 [1]: 5880 nM

O=C(Nc1cccc(Cl)c1)c1ccnc(N2CCC(N3CCCC3)CC2)c1 [Compound 26]
EC50 [1]: 674 nM

O=C(Nc1cccc(Cl)c1)c1cc(C(F)(F)F)nc(N2CCC(N3CCCC3)CC2)n1 [Compound 27]
EC50 [1]: 1670 nM

Cc1cc(C(=O)Nc2cccc(Cl)c2)nc(N2CCC(N3CCCC3)CC2)n1 [Compound 28]
EC50 [1]: 2980 nM

CC(C)(C)c1cc(C(=O)Nc2cccc(Cl)c2)nc(N2CCC(N3CCCC3)CC2)n1 [Compound 29]
EC50 [1]: 2080 nM

O=C(Nc1cccc(Cl)c1)c1cc(N2CCC(N3CCCCC3)CC2)cc(C(F)(F)F)c1 [Compound 30]
EC50 [1]: 82 nM | EC50 [2]: 296 nM | AUC(0–5h)/dose [3]: 6.10 (min ug/mL)/(mg/kg) | AUC(0-t) [3]: 4.37 µM·h | Cmax at 5 h [3]: 1370 nM | Tmax at 5 h [3]: 1 h

O=C(Nc1cccc(C(F)(F)F)c1)c1cc(N2CCC(N3CCCCC3)CC2)cc(C(F)(F)F)c1 [Compound 31]
EC50 [1]: 149 nM | EC50 [2]: 299 nM

CC1CCN(C2CCN(c3cc(C(=O)Nc4cccc(Cl)c4)cc(C(F)(F)F)c3)CC2)CC1 [Compound 32]
EC50 [1]: 140 nM | EC50 [4]: 268 nM | EC50 [5]: 104 nM | solubility thermodynamic [6]: 26 µg/mL (≈ 54.2 µM) | EC50 [7]: 94 nM | EC50 [2]: 323 nM | spread of potencies across the strain panel [8]: ≤ 3 fold | EC50 [9]: 146 nM | EC50 [10]: 83 nM | EC50 [11]: 150 nM | EC50 [12]: 81 nM | EC50 [13]: 218 nM | AUC(0–5h)/dose [3]: 11.42 (min ug/mL)/(mg/kg) | AUC(0-t) [3]: 7.93 µM·h | Cmax at 5 h [3]: 2280 nM | Tmax at 5 h [3]: 5 h | EC50 [14]: 138 nM | EC50 [15]: 306 nM | extraction ratio [16]: 0.383 ± 0.04 | microsomal CLint [16]: 21.4 µL/min/mg | selectivity ratio [17]: > 20 | EC50 [18]: 141 nM | cytotoxicity TC50 [19]: greater than 8 μM | cytotoxicity TC50 [20]: greater than 8 μM | cytotoxicity TC50 [21]: greater than 8 μM | cytotoxicity TC50 [22]: greater than 8 μM | cytotoxicity TC50 [23]: greater than 8 μM | cytotoxicity TC50 [24]: greater than 8 μM | EC50 [25]: 309 nM | EC50 [26]: 120 nM

O=C(Nc1cccc(C(F)(F)F)c1)c1cc(N2CCC(N3CCCCC3=O)CC2)cc(C(F)(F)F)c1 [Compound 33]
EC50 [1]: 1490 nM | EC50 [2]: 1410 nM

CC1CCCN(C2CCN(c3cc(C(=O)Nc4cccc(C(F)(F)F)c4)cc(C(F)(F)F)c3)CC2)C1 (stereo not shown) [Compound 34]
EC50 [1]: 58 nM | EC50 [2]: 211 nM

O=C(Nc1cccc(C(F)(F)F)c1)c1cc(N2CCc3ccccc3C2)cc(C(F)(F)F)c1 [Compound 35]
EC50 [1]: 175 nM | EC50 [2]: 635 nM | AUC(0–5h)/dose [3]: 2.33 (min ug/mL)/(mg/kg) | AUC(0-t) [3]: 1.67 µM·h | Cmax at 5 h [3]: 672 nM | Tmax at 5 h [3]: 0.5 h
